Results taken from paper PMC12207590, “Substrate Specificity of the Organic Cation Transporters MATE1 and MATE2K and Functional Overlap with OCT1 and OCT2” (Journal of Medicinal Chemistry, 2025).
Where two headings read alike, the source gives them in different places.

Key:
MATE1 [1] = target: T1, MATE1 (Homo sapiens, UniProt Q96FL8); assay: Uptake ratio in MATE1-overexpressing HEK293 cells vs empty vector (2.5 μM, 1 min, HPLC-MS/MS); format: cell-based; settings: for MATE1 (uptake ratio): mean ratio of uptake in MATE1-overexpressing HEK293 cells vs empty vector
T1 sequence (Q96FL8 1-570): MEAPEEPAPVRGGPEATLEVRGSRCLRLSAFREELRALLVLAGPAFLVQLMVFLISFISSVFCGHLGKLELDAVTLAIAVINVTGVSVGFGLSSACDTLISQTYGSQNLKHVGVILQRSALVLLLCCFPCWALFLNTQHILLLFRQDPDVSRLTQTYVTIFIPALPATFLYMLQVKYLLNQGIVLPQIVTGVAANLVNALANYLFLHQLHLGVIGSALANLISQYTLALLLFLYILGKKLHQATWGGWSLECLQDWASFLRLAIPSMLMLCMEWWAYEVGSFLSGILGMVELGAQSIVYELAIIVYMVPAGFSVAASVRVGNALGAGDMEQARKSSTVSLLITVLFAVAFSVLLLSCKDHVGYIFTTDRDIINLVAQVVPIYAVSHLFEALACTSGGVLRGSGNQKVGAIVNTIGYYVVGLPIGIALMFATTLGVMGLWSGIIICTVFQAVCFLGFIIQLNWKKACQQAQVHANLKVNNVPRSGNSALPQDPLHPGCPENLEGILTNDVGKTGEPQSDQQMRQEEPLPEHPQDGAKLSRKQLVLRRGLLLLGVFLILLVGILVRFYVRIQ

MATE2K [2] = target: T2, MATE2K (Homo sapiens, UniProt Q86VL8); assay: Uptake ratio in MATE2K-overexpressing HEK293 cells vs empty vector (2.5 μM, 1 min, HPLC-MS/MS); format: cell-based; settings: for MATE2K ratio: fold uptake over empty vector; for MATE2 (uptake ratio): mean ratio of uptake in MATE2K-overexpressing HEK293 cells vs empty vector
[3] = cited from earlier work
hCMEC [4] = assay: TS DPH hCMEC (Table S2); format: cell-based, human; design: scale not given here; settings: Table S2
hCMEC [5] = assay: TS MDAI hCMEC (Table S2); format: cell-based, human; design: scale not given here; settings: Table S2
MATE1 [6] = target: T1, MATE1; assay: Concentration-dependent uptake (Michaelis-Menten) via MATE1 in HEK293 cells; settings: for Km: read-out: MATE1 KM
MATE2K [7] = target: T2, MATE2K; assay: Concentration-dependent uptake (Michaelis-Menten) via MATE2K in HEK293 cells; settings: for Km: read-out: MATE2K KM
[8] = system: MATE1, MATE2K, OCT1, OCT2; assay: Substrate specificity and overlap among the four transporters (ratio cutoff 2); format: cell-based, human; settings: transport ratio cutoff of 2
[9] = fold uptake over empty vector, 2.5 μM, 1 min
[10] = uptake ratio MATE1-overexpressing vs empty-vector HEK293 cells, 2.5 μM, 1 min, mean
[11] = uptake ratio MATE2K-overexpressing vs empty-vector HEK293 cells, 2.5 μM, 1 min, mean

T2 sequence (Q86VL8 1-566 isoform Q86VL8-3): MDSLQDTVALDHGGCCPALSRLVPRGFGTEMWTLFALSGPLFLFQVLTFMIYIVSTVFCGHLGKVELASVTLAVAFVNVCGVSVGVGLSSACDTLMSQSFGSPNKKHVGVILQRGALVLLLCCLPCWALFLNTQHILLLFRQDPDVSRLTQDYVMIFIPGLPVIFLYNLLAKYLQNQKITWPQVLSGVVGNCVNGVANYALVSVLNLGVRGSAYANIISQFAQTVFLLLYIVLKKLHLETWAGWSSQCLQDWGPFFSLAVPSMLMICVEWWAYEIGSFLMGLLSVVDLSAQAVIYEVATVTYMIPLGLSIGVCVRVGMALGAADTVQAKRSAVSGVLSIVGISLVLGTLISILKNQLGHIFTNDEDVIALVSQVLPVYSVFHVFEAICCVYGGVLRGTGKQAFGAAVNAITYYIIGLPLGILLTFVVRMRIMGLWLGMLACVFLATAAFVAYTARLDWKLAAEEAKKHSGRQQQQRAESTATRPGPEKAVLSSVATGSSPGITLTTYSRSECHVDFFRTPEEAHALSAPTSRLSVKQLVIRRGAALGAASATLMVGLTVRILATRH

C=CCN1CCCC1CNC(=O)c1cc2nn[nH]c2cc1OC (centres unmarked) [Alizapride]
MATE1 ratio (MATE1 [1]; [9]): 3.68
MATE1 ratio (MATE1 [1]; fold uptake over empty vector, 2.5 μM, 1 min, listed as alizapride): above 2
MATE1 (uptake ratio) (MATE1 [1]; 2.5 μM, 1 min): 3.68
MATE2K ratio (MATE2K [2]; 2.5 μM, 1 min): 2.64
MATE2 (uptake ratio) (MATE2K [2]; 2.5 μM, 1 min): 2.64
eliminated unchanged via the kidneys ([3]; human): more than 70%

Nc1ccncc1N [Amifampridine]
MATE1 ratio (MATE1 [1]; [9]): 17.06
MATE1 ratio (MATE1 [1]; fold uptake over empty vector, 2.5 μM, 1 min, listed as amifampridine): above 2
MATE1 (uptake ratio) (MATE1 [1]; 2.5 μM, 1 min): 17.06
MATE2K ratio (MATE2K [2]; 2.5 μM, 1 min): 7.01
MATE2 (uptake ratio) (MATE2K [2]; 2.5 μM, 1 min): 7.01
eliminated unchanged via the kidneys ([3]; human): more than 70%

CCN1CCCC1CNC(=O)c1cc(S(=O)(=O)CC)c(N)cc1OC (centres unmarked) [Amisulpride]
MATE1 ratio (MATE1 [1]; [9]): 11.04
MATE1 ratio (MATE1 [1]; fold uptake over empty vector, 2.5 μM, 1 min, listed as amisulpride): above 2
MATE1 (uptake ratio) (MATE1 [1]; 2.5 μM, 1 min): 11.04
MATE2K ratio (MATE2K [2]; 2.5 μM, 1 min): 11.15
MATE2 (uptake ratio) (MATE2K [2]; 2.5 μM, 1 min): 11.15
TS DPH hCMEC (hCMEC [4]): 0.89
TS MDAI hCMEC (hCMEC [5]): 0.91
eliminated unchanged via the kidneys ([3]; human): more than 70%
MATE1 Vmax (MATE1 [6]; HEK293, 1 min, net uptake): 238 pmol × mg protein^–1 × min^–1
Km (MATE1 [6]; HEK293, 1 min, net uptake): 10.6 µM
MATE2K Vmax (MATE2K [7]; HEK293, 1 min, net uptake): 710 pmol × mg protein^–1 × min^–1
Km (MATE2K [7]; HEK293, 1 min, net uptake): 39.9 µM

CC(C)NCC(O)COc1ccc(COCCOC(C)C)cc1 (centres unmarked) [Bisoprolol]
TS DPH hCMEC (hCMEC [4]): 0.32
TS MDAI hCMEC (hCMEC [5]): 0.35
eliminated unchanged via the kidneys ([3]; human): 50%

CC[N+](C)(C)c1cccc(O)c1 [Edrophonium]
MATE1 ratio (MATE1 [1]; [9]): 30.33
MATE1 ratio (MATE1 [1]; fold uptake over empty vector, 2.5 μM, 1 min, listed as edrophonium): above 2
MATE2K ratio (MATE2K [2]; 2.5 μM, 1 min): 10.98
eliminated unchanged via the kidneys ([3]; in vivo): more than 70%

NC(N)=Nc1nc(CSCCC(N)=NS(N)(=O)=O)cs1 [Famotidine]
eliminated unchanged via the kidneys ([3]; human): more than 70%

CN[C@@H]1CCc2[nH]c3ccc(C(N)=O)cc3c2C1 [Frovatriptan]
MATE1 ratio (MATE1 [1]; [9]): 34.35
MATE2K ratio (MATE2K [2]; 2.5 μM, 1 min): 31.50
TS DPH hCMEC (hCMEC [4]): 0.83
TS MDAI hCMEC (hCMEC [5]): 0.88
Substrate specificity among MATE1, MATE2K, OCT1, OCT2 [8]: All four transporters
MATE1 Vmax (MATE1 [6]; HEK293, 1 min, net uptake): 4568 pmol × mg protein^–1 × min^–1
Km (MATE1 [6]; HEK293, 1 min, net uptake): 70.4 µM
MATE2K Vmax (MATE2K [7]; HEK293, 1 min, net uptake): 869 pmol × mg protein^–1 × min^–1
Km (MATE2K [7]; HEK293, 1 min, net uptake): 11.2 µM

C[C@H]1N=C(N(C)C)N=C(N)N1 [Imeglimin]
MATE1 ratio in this study (MATE1 [1]; Table S1, 2.5 μM, 1 min): 18.76
MATE1 ratio (MATE1 [1]; [9]): 18.76
MATE1 ratio (MATE1 [1]; fold uptake over empty vector, 2.5 μM, 1 min, listed as imeglimin): above 2
MATE2K ratio in this study (MATE2K [2]; Table S1, 2.5 μM, 1 min): 4.59
MATE2K ratio (MATE2K [2]; 2.5 μM, 1 min): 4.59
eliminated unchanged via the kidneys ([3]; human): more than 70%
MATE1 Vmax (MATE1 [6]; HEK293, 1 min, net uptake): 6242 pmol × mg protein^–1 × min^–1
Km (MATE1 [6]; HEK293, 1 min, net uptake): 58 µM
MATE2K Vmax (MATE2K [7]; HEK293, 1 min, net uptake): 2814 pmol × mg protein^–1 × min^–1
Km (MATE2K [7]; HEK293, 1 min, net uptake): 81.6 µM

CNC(=C[N+](=O)[O-])NCCSCc1ccc(CN(C)C)o1 [Ranitidine]
MATE1 ratio (MATE1 [1]; [9]): 18.91
MATE1 ratio (MATE1 [1]; fold uptake over empty vector, 2.5 μM, 1 min, listed as ranitidine): above 2
MATE1 (MATE1 [1]; [10]): 18.91
MATE2K ratio (MATE2K [2]; 2.5 μM, 1 min): 8.62
MATE2 (MATE2K [2]; [11]): 8.62
TS DPH hCMEC (hCMEC [4]): 1.26
TS MDAI hCMEC (hCMEC [5]): 1.24
eliminated unchanged via the kidneys ([3]; human): more than 70%

C#CCN[C@@H]1CCc2ccccc21 [Rasagiline]
MATE1 ratio (MATE1 [1]; [9]): 1.18
MATE1 (MATE1 [1]; [10]): 1.18
MATE2K ratio (MATE2K [2]; 2.5 μM, 1 min): 2.16
MATE2 (MATE2K [2]; [11]): 2.16
TS DPH hCMEC (hCMEC [4]): 0.54
TS MDAI hCMEC (hCMEC [5]): 0.51
Substrate specificity among MATE1, MATE2K, OCT1, OCT2 [8]: specific for only OCT2 and MATE2K
MATE1 Vmax (MATE1 [6]; HEK293, 1 min, net uptake): 194 pmol × mg protein^–1 × min^–1
Km (MATE1 [6]; HEK293, 1 min, net uptake): 167 µM
MATE2K Vmax (MATE2K [7]; HEK293, 1 min, net uptake): linear

N[C@@H](CC(=O)N1CCn2c(nnc2C(F)(F)F)C1)Cc1cc(F)c(F)cc1F [Sitagliptin]
MATE1 ratio (MATE1 [1]; [9]): 4.17
MATE1 ratio (MATE1 [1]; fold uptake over empty vector, 2.5 μM, 1 min, listed as sitagliptin): above 2
MATE1 (MATE1 [1]; [10]): 4.17
MATE2K ratio (MATE2K [2]; 2.5 μM, 1 min): 2.77
MATE2 (MATE2K [2]; [11]): 2.77
eliminated unchanged via the kidneys ([3]; human): more than 70%

CC(C)NCC(O)c1ccc(NS(C)(=O)=O)cc1 (centres unmarked) [Sotalol]
MATE1 ratio (MATE1 [1]; [9]): 19.70
MATE1 ratio (MATE1 [1]; fold uptake over empty vector, 2.5 μM, 1 min, listed as sotalol): above 2
MATE1 (MATE1 [1]; [10]): 19.7
MATE2K ratio (MATE2K [2]; 2.5 μM, 1 min): 1.62
MATE2 (MATE2K [2]; [11]): 1.62
eliminated unchanged via the kidneys ([3]; human): more than 70%

CCN1CCCC1CNC(=O)c1cc(S(N)(=O)=O)ccc1OC (centres unmarked) [Sulpiride]
eliminated unchanged via the kidneys ([3]; in vivo): more than 70%
MATE1 Vmax (MATE1 [6]): 851 pmol × mg protein^–1 × min^–1
Km (MATE1 [6]; HEK293, 1 min, net uptake): 16 µM
MATE2K Vmax (MATE2K [7]): 1025 pmol × mg protein^–1 × min^–1
Km (MATE2K [7]; HEK293, 1 min, net uptake): 22.8 µM

O=C(O[C@H]1C[C@H]2CC[C@@H](C1)[N+]21CCCC1)C(O)(c1ccccc1)c1ccccc1 [Trospium]
MATE1 (MATE1 [1]): 21.28
MATE1 ratio (MATE1 [1]): above 2
MATE1 ratio in this study (MATE1 [1]): 21.28
MATE2 (MATE2K [2]): 5.18
MATE2K ratio in this study (MATE2K [2]): 5.18
eliminated unchanged via the kidneys ([3]; human): more than 70%

Nc1ccn([C@H]2CC[C@@H](CO)O2)c(=O)n1 [Zalcitabine]
MATE1 ratio in this study (MATE1 [1]; Table S1, 2.5 μM, 1 min): 12.98
MATE1 ratio (MATE1 [1]; [9]): above 2
MATE1 (MATE1 [1]; [10]): 12.98
MATE2K ratio in this study (MATE2K [2]; Table S1, 2.5 μM, 1 min): 1.22
MATE2 (MATE2K [2]; [11]): 1.22
eliminated unchanged via the kidneys ([3]; human): more than 70%
MATE1 Vmax (MATE1 [6]; HEK293, 1 min, net uptake): 10,171 pmol × mg protein^–1 × min^–1
Km (MATE1 [6]; HEK293, 1 min, net uptake): 1560 µM
MATE2K Vmax (MATE2K [7]; HEK293, 1 min, net uptake): linear
